{"source": "patent US8912121B2", "about": "“Herbicidal compositions comprising 4-amino-3-chloro-5-fluoro-6-(4-chloro-2-fluoro-3-methoxyphenyl)pyridine-2-carboxylic acid or a derivative thereof and certain PS II inhibitors” (Dow Agrosciences LLC, priority 2012, dated 2014)", "key": {"[1]": {"system": "ECHCO (Echinochloa colona, junglerice)", "test": "Postemergence foliar-applied mixtures, direct seeded rice, greenhouse", "format": "in vivo, Echinochloa colona (L.) Link", "details": "450 g ai/ha; 21 DAA", "from_the_text": "(§1) Seeds or nutlets of the desired test plant species were planted in a soil matrix prepared by mixing a loam or sandy loam soil (e.g., 28.6 percent silt, 18.8 percent clay, and 52.6 percent sand, with a pH of about 5.8 and an organic matter content of about 1.8 percent) and calcareous grit in an 80 to 20 ratio. The soil matrix was contained in plastic pots with a volume of 1 quart and a surface area of 83.6 square centimeters (cm^2). When required to ensure good germination and healthy plants, a fungicide treatment and/or other chemical or physical treatment was applied. The plants were grown for 8-22 days in a greenhouse with an approximate 14 h photoperiod which was maintained at about 29° C. during the day and 26° C. during the night. Nutrients (Peters Excel® 15-5-15 5-Ca 2-Mg and iron chelate) were applied in the irrigation solution as needed and water was added on a regular basis. Supplemental lighting was provided with overhead metal halide 1000-Watt lamps as necessary. The plants were employed for testing when they reached the first through fourth true leaf stage.\n(§2) Treatments consisted of the acid or esters of 4-amino-3-chloro-5-fluoro-6-(4-chloro-2-fluoro-3-methoxy-phenyl) pyridine-2-carboxylic acid (Compound A), each formulated as an SC (suspension concentrate), and various herbicidal components alone and in combination. Forms of compound A were applied on an acid equivalent basis.\n(§3) Other herbicidal components were applied on an active ingredient basis and included Photosystem II (PSII)-inhibiting herbicides propanil formulated as Stam® M4 EC, bentazon-sodium formulated as Basagran®, atrazine formulated as Atrazine 90 WDG, bromoxynil octanoate ester formulated as Buctril®, simetryne (technical grade material), simazine formulated as Princep® Caliber 90, ioxynil (technical grade material), cyanazine (technical grade material), and hexazinone (technical grade material).\n(§4) Treatment requirements were calculated based upon the rates being tested, the concentration of active ingredient or acid equivalent in the formulation, and a 12 mL application volume at a rate of 187 L/ha.\n(§5) For treatments comprised of formulated compounds, measured amounts of compounds were placed individually in 25 mL glass vials and diluted in a volume of 1.25% (v/v) Agri-Dex® crop oil concentrated to obtain 12× stock solutions. […] Application solutions were prepared by adding an appropriate amount of each stock solution (e.g., 1 mL) and diluted to the appropriate final concentrations with the addition of 10 mL of an aqueous mixture of 1.25% (v/v) crop oil concentrate so that the final spray solutions contained 1.25+/−0.05% (v/v) crop oil concentrate.\n(§6) For treatments comprised of technical compounds, weighed amounts can be placed individually in 25 mL glass vials and dissolved in a volume of 97:3 v/v acetone/DMSO to obtain 12× stock solutions. […] Application solutions can be prepared by adding an appropriate amount of each stock solution (e.g., 1 mL) and diluted to the appropriate final concentrations with the addition of 10 mL of an aqueous mixture of 1.5% (v/v) crop oil concentrate so that the final spray solutions contain 1.25% (v/v) crop oil concentrate. When technical materials are used, the concentrated stock solutions can be added to the spray solutions so that the final acetone and DMSO concentrations of the application solutions are 16.2% and 0.5%, respectively.\n(§7) For treatments comprised of formulated and technical compounds, weighed amounts of the technical materials were placed individually in 25 mL glass vials and dissolved in a volume of 97:3 v/v acetone/DMSO to obtain 12× stock solutions, and measured amounts of the formulated compounds were placed individually in 25 mL glass vials and diluted in a volume of 1.5% (v/v) crop oil concentrate or water to obtain 12× stock solutions. […]"}, "[2]": {"system": "CYPIR (Cyperus iria, rice flatsedge)", "test": "Postemergence foliar-applied mixtures, direct seeded rice, greenhouse", "format": "in vivo, Cyperus iria L.", "details": "22 DAA", "from_the_text": "as §1, §2, §3, §4, §5, §6, §7"}, "[3]": {"system": "LEFCH (Leptochloa chinensis, Chinese sprangletop)", "test": "Postemergence foliar-applied mixtures, direct seeded rice, greenhouse", "format": "in vivo, Leptochloa chinensis (L.) Nees", "details": "225 g ai/ha; 22 DAA", "from_the_text": "as §1, with “stage. […]” for “stage.”\nas §4\n(§8) For treatments comprised of formulated compounds, measured amounts of compounds were placed individually in 25 mL glass vials and diluted in a volume of 1.25% (v/v) Agri-Dex® crop oil concentrated to obtain 12× stock solutions. […]\nas §7"}, "[4]": {"system": "ECHOR (Echinochloa oryzoides, early watergrass)", "test": "In-water applied mixtures, transplanted paddy rice, greenhouse", "format": "in vivo, Echinochloa oryzoides (Ard.) Fritsch", "procedure": "(§9) Weed seeds or nutlets of the desired test plant species were planted in puddled soil (mud) prepared by mixing a shredded, non-sterilized mineral soil (50.5 percent silt, 25.5 percent clay, and 24 percent sand, with a pH of about 7.6 and an organic matter content of about 2.9 percent) and water at a 1:1 volumetric ratio. The prepared mud was dispensed in 365 mL aliquots into 16-ounce (oz.) non-perforated plastic pots with a surface area of 86.59 square centimeters (cm^2) leaving a headspace of 3 centimeters (cm) in each pot Mud was allowed to dry overnight prior to planting or transplanting. Rice seeds were planted in Sun Gro MetroMix® 306 planting mixture, which typically has a pH of 6.0 to 6.8 and an organic matter content of about 30 percent, in plastic plug trays. Seedlings at the second or third leaf stage of growth were transplanted into 840 mL of mud contained in 32-oz. non-perforated plastic pots with a surface area of 86.59 cm^2 4 days prior to herbicide application. The paddy was created by filling the headspace of the pots with 2.5 to 3 cm of water. When required to ensure good germination and healthy plants, a fungicide treatment and/or other chemical or physical treatment was applied. The plants were grown for 4-22 days in a greenhouse with an approximate 14 h photoperiod which was maintained at about 29° C during the day and 26° C. during the night. Nutrients were added as Osmocote® (19:6:12, N:P:K+ minor nutrients) at 2 g per 16-oz. pot and 4 g per 32-oz. pot. Water was added on a regular basis to maintain the paddy flood, and supplemental lighting was provided with overhead metal halide 1000-Watt lamps as necessary. The plants were employed for testing when they reached the first through fourth true leaf stage.\n(§10) Treatments consisted of the acid or esters of 4-amino-3-chloro-5-fluoro-6-(4-chloro-2-fluoro-3-methoxy-phenyl)pyridine-2-carboxylic acid (compound A) each formulated as an SC (suspension concentrate) and various herbicidal components alone and in combination. Forms of compound A were applied on an acid equivalent basis.\n(§11) Other herbicidal components were applied on an active ingredient basis and included photosystem II (PSII)-inhibits propanil formulated as […] bentazon-sodium formulated as Basagran®, and simetryne (technical grade material).\n(§12) Treatment requirements for each compound or herbicidal component were calculated based upon the rates being tested, the concentration of active ingredient or acid equivalent in the formulation, an application volume of 2 mL per component per pot, and an application area of 86.59 cm^2 per pot.\n(§13) For formulated compounds, a measured amount was placed in an individual 100 or 200 mL glass vial and was dissolved in a volume of 1.25% (v/v) Agri-Dex® crop oil concentrate to obtain application solutions.\n(§14) For technical grade compounds, a weighed amount was placed in an individual 100 to 200 mL glass vial and was dissolved in a volume of acetone to obtain concentrated stock solutions. […] The concentrated stock solutions obtained were diluted with an equivalent volume of an aqueous mixture containing 2.5% (v/v) crop oil concentrate so that the final application solutions contained 1.25% (v/v) crop oil concentrate.\n(§15) Applications were made by injecting with a pipetter appropriate amounts of the application solutions, individually and sequentially, into the aqueous layer of the paddy. Control plants were treated in the same manner with the solvent blank. Applications were made so that all treated plant material received the same concentrations of acetone and crop oil concentrate.\n(§16) The treated plants and control plants were placed in a greenhouse as described above and water was added as needed to maintain a paddy flood. After approximately 3 weeks the condition of the test plants as compared with that of the untreated plants was determined visually and scored on a scale of 0 to 100 percent where 0 corresponds to no injury or growth inhibition and 100 corresponds to complete kill. […]"}, "[5]": {"system": "FIMMI (Fimbristylis miliacea, globe fringerush)", "test": "In-water applied mixtures, transplanted paddy rice, greenhouse", "format": "in vivo, Fimbristylis miliacea (L.) Vahl", "details": "19 DAA", "procedure": "as §9, §10, §11, §12, §13\nFor technical grade compounds, a weighed amount was placed in an individual 100 to 200 mL glass vial and was dissolved in a volume of acetone to obtain concentrated stock solutions. […]\nas §16"}, "[6]": {"system": "CYPRO (Cyperus rotundus, purple nutsedge)", "test": "In-water applied mixtures, transplanted paddy rice, greenhouse", "format": "in vivo, Cyperus rotundus L.", "details": "19 DAA", "procedure": "as §9, §10, §11, §12, §13, §14, §15, §16"}, "[7]": {"system": "IPOHE (Ipomoea hederacea, ivyleaf morningglory)", "test": "Postemergence foliar-applied mixtures, direct seeded rice, greenhouse", "format": "in vivo, Ipomoea hederacea Jacq.", "details": "post-emergence, read-out: Visual Weed Control (%) Obs", "from_the_text": "as §1, §2, §3, §4, §5, §6, §7"}, "[8]": {"system": "COMBE (Commelina benghalensis, Benghal dayflower)", "test": "Postemergence foliar-applied mixtures, direct seeded rice, greenhouse", "format": "in vivo, Commelina benghalensis L.", "details": "280 g ai/ha; 20 DAA", "from_the_text": "as §1, with “stage. […]” for “stage.”\nas §4, §8, §7"}, "[9]": {"system": "SCPMA (Schoenoplectus maritimus, sea clubrush)", "test": "In-water applied mixtures, transplanted paddy rice, greenhouse", "format": "in vivo, Schoenoplectus maritimus (L.) Lye", "details": "1120 g ae/ha; 20 DAA", "procedure": "as §9, §10, §11, §12, §13, §14, §15, §16"}, "[10]": {"system": "ECHCG (Echinochloa crusgalli, barnyardgrass)", "test": "In-water applied mixtures, transplanted paddy rice, greenhouse", "format": "in vivo, Echinochloa crusgalli (L.) Beauv.", "details": "21 DAA", "procedure": "as §9, with “stage. […]” for “stage.”\nas §12\nFor formulated compounds, a measured amount was placed in an individual 100 or 200 mL glass vial and was dissolved in a volume of 1.25% (v/v) Agri-Dex® crop oil concentrate to obtain application solutions. […]\nas §16"}, "[11]": {"system": "LEFCH (Leptochloa chinensis, Chinese sprangletop)", "test": "In-water applied mixtures, transplanted paddy rice, greenhouse", "format": "in vivo, Leptochloa chinensis (L.) Nees", "procedure": "as §9, §10, §11, §12, §13, §14, §15, §16"}}, "note": "Where two headings read alike, the source gives them in different places."}
{"compound": "CCNc1nc(NCC)nc(SC)n1", "note": "[Simetryne, N,N′-diethyl-6-(methylthio)-1,3,5-triazine-2,4-diamine, reference compound]", "values": [{"measurement": "Visual Weed Control (%) Obs", "setting": "[1]", "result": 45, "unit": "%"}, {"measurement": "Visual Weed Control (%) Obs", "setting": "[2]; 112.5 g ai/ha", "result": 0, "unit": "%"}, {"measurement": "Visual Weed Control (%) Obs", "setting": "[2]; 225 g ai/ha", "result": 0, "unit": "%"}, {"measurement": "Visual Weed Control (%) Obs", "setting": "[2]; 450 g ai/ha", "result": 30, "unit": "%"}, {"measurement": "Visual Weed Control (%) Obs", "setting": "[3]", "result": 40, "unit": "%"}, {"measurement": "Visual Weed Control (%) Obs", "setting": "[4]; 112.5 g ai/ha, 19 DAA", "result": 0, "unit": "%"}, {"measurement": "Visual Weed Control (%) Obs", "setting": "[4]; 225 g ai/ha, 19 DAA", "result": 10, "unit": "%"}, {"measurement": "Visual Weed Control (%) Obs", "setting": "[5]; 112.5 g ai/ha", "result": 45, "unit": "%"}, {"measurement": "Visual Weed Control (%) Obs", "setting": "[5]; 225 g ai/ha", "result": 90, "unit": "%"}, {"measurement": "Visual Weed Control (%) Obs", "setting": "[6]; 112.5 g ai/ha", "result": 0, "unit": "%"}, {"measurement": "Visual Weed Control (%) Obs", "setting": "[6]; 225 g ai/ha", "result": 0, "unit": "%"}, {"measurement": "Visual Weed Control (%) Obs", "setting": "[6]; 450 g ai/ha", "result": 0, "unit": "%"}]}
{"compound": "CC(C)N1C(=O)c2ccccc2NS1(=O)=O", "note": "[Bentazon-sodium, 3-(1-methylethyl)-1H-2,1,3-benzothiadiazin-4(3H)-one 2,2-dioxide, reference compound]", "values": [{"measurement": "pest or weed control at 840 g/ha", "setting": "[7]; 480 h, 840 g ae/ha, 20 DAA", "result": 13, "unit": "%"}, {"measurement": "pest or weed control at 105 g/ha", "setting": "[7]; 504 h, 105 g ai/ha, 21 DAA", "result": 0, "unit": "%"}, {"measurement": "pest or weed control at 210 g/ha", "setting": "[7]; 504 h, 210 g ai/ha, 21 DAA", "result": 0, "unit": "%"}, {"measurement": "pest or weed control at 420 g/ha", "setting": "[7]; 504 h, 420 g ai/ha, 21 DAA", "result": 10, "unit": "%"}, {"measurement": "pest or weed control at 840 g/ha", "setting": "[7]; 504 h, 840 g ai/ha, 21 DAA", "result": 13, "unit": "%"}, {"measurement": "Visual Weed Control (%) Obs", "setting": "[8]", "result": 10, "unit": "%"}, {"measurement": "Visual Weed Control (%) Obs", "setting": "[9]", "result": 0, "unit": "%"}, {"measurement": "Visual Weed Control (%) Obs", "setting": "[10]; 420 g ae/ha", "result": 0, "unit": "%"}, {"measurement": "Visual Weed Control (%) Obs", "setting": "[10]; 840 g ae/ha", "result": 0, "unit": "%"}, {"measurement": "Visual Weed Control (%) Obs", "setting": "[11]; 420 g ae/ha, 21 DAA", "result": 0, "unit": "%"}, {"measurement": "Visual Weed Control (%) Obs", "setting": "[11]; 840 g ae/ha, 21 DAA", "result": 0, "unit": "%"}, {"measurement": "Visual Weed Control (%) Obs", "setting": "[11]; 1120 g ae/ha, 20 DAA", "result": 0, "unit": "%"}, {"measurement": "Visual Weed Control (%) Obs", "setting": "[4]; 1120 g ae/ha, 20 DAA", "result": 0, "unit": "%"}]}
